Experimental data from the supplement of paper PMC10307832.

Legend:
Experiment in all cases: relative viability (nuclei count vs DMSO), 5 days (fraction); higher = more cells survive
HCC-44 = system: HCC-44
Outline: (§1)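 After 5 days of treatment, lung cancer cells in 1536-well plates were fixed and stained in a single step (final 0.05% Triton X-100, 1% formaldehyde, 1 ug/ml Hoechst) and their nuclei counted on 4× images. Treatment had been applied by pin tool the day after seeding as one drug alone or as a fixed anchor-drug dose with five library-drug doses (not always all listed) in √10 steps. Relative viability is the nuclei count of treated wells divided by that of vehicle wells, and values are medians of duplicate plates.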

NCI-H1666 = system: NCI-H1666
Outline: as §1

EKVX = system: EKVX
Outline: as §1

COR-L 105 = system: COR-L 105
Outline: as §1

NCI-H1975 = system: NCI-H1975
Outline: as §1

NCI-H2342 = system: NCI-H2342
Outline: as §1

LOU-NH91 = system: LOU-NH91
Outline: as §1

BEN = system: BEN
Outline: as §1

HCC-827 = system: HCC-827
Outline: as §1

NCI-H2087 = system: NCI-H2087
Outline: as §1

LCLC-97TM1 = system: LCLC-97TM1
Outline: as §1

CCN(CC)CCCCNc1ncc2cc(-c3cc(OC)cc(OC)c3)c(NC(=O)NC(C)(C)C)nc2n1 + COc1cccc2cc(-c3nc([C@H]4CC[C@H](C(=O)O)CC4)n4ncnc(N)c34)[nH]c12 [OSI-027] (partner 0.5 µM)
relative viability (HCC-44; first compound 0.01 µM): 0.436 | relative viability (HCC-44; first compound 0.03162 µM): 0.587 | relative viability (HCC-44; first compound 0.1 µM): 0.573 | relative viability (HCC-44; first compound 0.3162 µM): 0.519 | relative viability (HCC-44; first compound 1 µM): 0.479 | relative viability (NCI-H1666; first compound 0.01 µM): 0.896 | relative viability (NCI-H1666; first compound 0.03162 µM): 0.877 | relative viability (NCI-H1666; first compound 0.1 µM): 0.817 | relative viability (NCI-H1666; first compound 0.3162 µM): 1.08 | relative viability (NCI-H1666; first compound 1 µM): 0.851 | relative viability (EKVX; first compound 0.01 µM): 0.734 | relative viability (EKVX; first compound 0.03162 µM): 0.721 | relative viability (EKVX; first compound 0.1 µM): 0.711 | relative viability (EKVX; first compound 0.3162 µM): 0.765 | relative viability (EKVX; first compound 1 µM): 0.671 | relative viability (COR-L 105; first compound 0.01 µM): 0.704 | relative viability (COR-L 105; first compound 0.03162 µM): 0.591 | relative viability (COR-L 105; first compound 0.1 µM): 0.749 | relative viability (COR-L 105; first compound 0.3162 µM): 0.826 | relative viability (COR-L 105; first compound 1 µM): 0.417 | relative viability (NCI-H1975; first compound 0.01 µM): 0.86 | relative viability (NCI-H1975; first compound 0.03162 µM): 0.822 | relative viability (NCI-H1975; first compound 0.1 µM): 0.802 | relative viability (NCI-H1975; first compound 0.3162 µM): 0.949 | relative viability (NCI-H1975; first compound 1 µM): 0.559 | relative viability (NCI-H2342; first compound 0.01 µM): 0.676 | relative viability (NCI-H2342; first compound 0.03162 µM): 0.615 | relative viability (NCI-H2342; first compound 0.1 µM): 0.622 | relative viability (NCI-H2342; first compound 0.3162 µM): 0.701 | relative viability (NCI-H2342; first compound 1 µM): 0.568 | relative viability (LOU-NH91; first compound 0.01 µM): 0.672 | relative viability (LOU-NH91; first compound 0.03162 µM): 0.741 | relative viability (LOU-NH91; first compound 0.1 µM): 0.776 | relative viability (LOU-NH91; first compound 0.3162 µM): 0.776 | relative viability (LOU-NH91; first compound 1 µM): 0.696 | relative viability (BEN; first compound 0.01 µM): 0.242 | relative viability (BEN; first compound 0.03162 µM): 0.285 | relative viability (BEN; first compound 0.1 µM): 0.347 | relative viability (BEN; first compound 0.3162 µM): 0.311 | relative viability (BEN; first compound 1 µM): 0.282 | relative viability (HCC-827; first compound 0.01 µM): 0.809 | relative viability (HCC-827; first compound 0.03162 µM): 0.761 | relative viability (HCC-827; first compound 0.1 µM): 0.836 | relative viability (HCC-827; first compound 0.3162 µM): 0.95 | relative viability (HCC-827; first compound 1 µM): 0.655 | relative viability (NCI-H2087; first compound 0.01 µM): 0.618 | relative viability (NCI-H2087; first compound 0.03162 µM): 0.5 | relative viability (NCI-H2087; first compound 0.1 µM): 0.733 | relative viability (NCI-H2087; first compound 0.3162 µM): 0.636 | relative viability (NCI-H2087; first compound 1 µM): 0.6 | relative viability (LCLC-97TM1; first compound 0.01 µM): 0.553 | relative viability (LCLC-97TM1; first compound 0.03162 µM): 0.518 | relative viability (LCLC-97TM1; first compound 0.1 µM): 0.513 | relative viability (LCLC-97TM1; first compound 0.3162 µM): 0.619 | relative viability (LCLC-97TM1; first compound 1 µM): 0.367
